In US10173991B2, “Sulfone amide linked benzothiazole inhibitors of endothelial lipase” (BRISTOL-MYERS SQUIBB COMPANY, priority 2014, dated 2019):

Target: Endothelial lipase (EL) (Homo sapiens (Human), UniProt Q9Y5X9)
Test: Endothelial lipase (EL) enzymatic assay with fluorescent substrate A10070 in DMPG vesicles
Assay type: biochemical
In short: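 Compounds were preincubated with enzyme for 30 min at 37° C before FRET-substrate vesicles (A10070 in DMPG, 0.11 mole fraction) were added. Reaction rates were obtained from the 300–900 sec slope of fluorescence at 490/530 nm.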

Chain of Endothelial lipase (EL) (Q9Y5X9 21-500): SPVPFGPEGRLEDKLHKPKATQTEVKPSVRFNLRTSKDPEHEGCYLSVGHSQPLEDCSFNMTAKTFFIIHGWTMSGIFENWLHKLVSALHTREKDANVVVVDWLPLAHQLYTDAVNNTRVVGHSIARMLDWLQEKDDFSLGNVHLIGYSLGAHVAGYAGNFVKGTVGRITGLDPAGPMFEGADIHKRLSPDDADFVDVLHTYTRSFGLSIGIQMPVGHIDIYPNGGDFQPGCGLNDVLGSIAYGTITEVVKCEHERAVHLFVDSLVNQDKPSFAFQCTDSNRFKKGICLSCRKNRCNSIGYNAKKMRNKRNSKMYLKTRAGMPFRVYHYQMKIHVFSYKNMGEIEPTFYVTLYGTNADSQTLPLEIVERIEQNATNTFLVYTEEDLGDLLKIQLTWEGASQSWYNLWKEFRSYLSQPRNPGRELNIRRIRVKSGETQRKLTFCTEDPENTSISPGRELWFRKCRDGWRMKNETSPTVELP

Row | Compound | IC50 [nM]
1 | Cc1cc(-c2cc3sc(C(C(=O)NCC(=O)NC4CC4)S(=O)(=O)C(C)C)nc3cc2C)ccn1 (centres unmarked) [Example 255, N-[(cyclopropyl-carbamoyl)methyl]-2-[5-methyl-6-(2-methylpyridin-4-yl)-1,3-benzothiazol-2-yl]-2-(propane-2-sulfonyl) acetamide] | 5
2 | Cc1cc2nc(C(C(=O)NCC(=O)NC3CC3)S(=O)(=O)C(C)C)sc2cc1-c1ccc2c(=O)n(C)ccc2c1 (centres unmarked) [Example 256, N-[(cyclopropyl-carbamoyl)methyl]-2-[5-methyl-6-(2-methyl-1-oxo-1,2-dihydro-isoquinolin-6-yl)-1,3-benzothiazol-2-yl]-2-(propane-2-sulfonyl) acetamide] | 3
3 | Cc1cc(-c2cc3sc(C(C(=O)NCC(=O)NC4CC4)S(=O)(=O)C(C)C)nc3cc2C)cnn1 (centres unmarked) [Example 257, N-[(cyclopropyl-carbamoyl)methyl]-2-[5-methyl-6-(6-methylpyridazin-4-yl)-1,3-benzothiazol-2-yl]-2-(propane-2-sulfonyl) acetamide] | 11
4 | Cc1cc2nc(C(C(=O)NCC(=O)NC3CC3)S(=O)(=O)C(C)C)sc2cc1-c1ccc2c(c1)C(=O)NC2 (centres unmarked) [Example 258, N-[(cyclopropyl-carbamoyl)methyl]-2-[5-methyl-6-(3-oxo-2,3-dihydro-1H-isoindol-5-yl)-1,3-benzothiazol-2-yl]-2-(propane-2-sulfonyl) acetamide] | 19
5 | Cc1cc2nc(C(C(=O)NCC(=O)NC3CC3)S(=O)(=O)C(C)C)sc2cc1-c1ccc(C(=O)N2CCC2)cc1 (centres unmarked) [Example 259, 2-{6-[4-(azetidine-1-carbonyl)phenyl]-5-methyl-1,3-benzothiazol-2-yl}-N-[(cyclopropyl-carbamoyl)methyl]-2-(propane-2-sulfonyl)acetamide] | 3
6 | Cc1cc2nc(C(C(=O)NCC(=O)NC3CC3)S(=O)(=O)C(C)C)sc2cc1-c1ccc2cnn(C)c2c1 (centres unmarked) [Example 260, N-[(cyclopropyl-carbamoyl)methyl]-2-[5-methyl-6-(1-methyl-1H-indazol-6-yl)-1,3-benzothiazol-2-yl]-2-(propane-2-sulfonyl)acetamide] | 7
7 | Cc1cc2nc(C(C(=O)NCC(=O)NC3CC3)S(=O)(=O)C(C)C)sc2cc1-c1ccc(-c2ccccn2)cc1 (centres unmarked) [Example 261, N-[(cyclopropyl-carbamoyl)methyl]-2-{5-methyl-6-[4-(pyridin-2-yl)phenyl]-1,3-benzothiazol-2-yl}-2-(propane-2-sulfonyl) acetamide] | 4
8 | Cc1ccc(-c2cc3nc(C(C(=O)NCC(=O)NC4CC4)S(=O)(=O)C(C)C)sc3cc2F)cn1 (centres unmarked) [Example 262, N-[(cyclopropyl-carbamoyl)methyl]-2-[6-fluoro-5-(6-methylpyridin-3-yl)-1,3-benzothiazol-2-yl]-2-(propane-2-sulfonyl)acetamide] | 10
9 | CC(C)S(=O)(=O)C(C(=O)NCC(=O)NC1CC1)c1nc2cc(-c3ccc(F)nc3)c(F)cc2s1 (centres unmarked) [Example 263, N-[(cyclopropyl-carbamoyl)methyl]-2-[6-fluoro-5-(6-fluoropyridin-3-yl)-1,3-benzothiazol-2-yl]-2-(propane-2-sulfonyl)acetamide] | 13
10 | Cc1cc(-c2cc3nc(C(C(=O)NCC(=O)NC4CC4)S(=O)(=O)C(C)C)sc3cc2F)ccn1 (centres unmarked) [Example 264, N-[(cyclopropyl-carbamoyl)methyl]-2-[6-fluoro-5-(2-methylpyridin-4-yl)-1,3-benzothiazol-2-yl]-2-(propane-2-sulfonyl)acetamide] | 7
11 | CC(C)c1ccc(-c2cc3nc(C(C(=O)NCC(=O)NC4CC4)S(=O)(=O)C(C)C)sc3cc2F)cn1 (centres unmarked) [Example 265, N-[(cyclopropyl-carbamoyl)methyl]-2-{6-fluoro-5-[6-(propan-2-yl)pyridin-3-yl]-1,3-benzothiazol-2-yl}-2-(propane-2-sulfonyl)acetamide] | 4
12 | CC(C)S(=O)(=O)C(C(=O)NCC(=O)NC1CC1)c1nc2cc(-c3ccc4c(c3)CC(=O)N4)c(F)cc2s1 (centres unmarked) [Example 266, N-[(cyclopropyl-carbamoyl)methyl]-2-[6-fluoro-5-(2-oxo-2,3-dihydro-1H-indol-5-yl)-1,3-benzothiazol-2-yl]-2-(propane-2-sulfonyl)acetamide] | 38
13 | CC(C)S(=O)(=O)C(C(=O)NCC(=O)NC1CC1)c1nc2cc(-c3ccc4c(=O)n(C)ccc4c3)c(F)cc2s1 (centres unmarked) [Example 267, N-[(cyclopropyl-carbamoyl)methyl]-2-[6-fluoro-5-(2-methyl-1-oxo-1,2-dihydro-isoquinolin-6-yl)-1,3-benzothiazol-2-yl]-2-(propane-2-sulfonyl) acetamide] | 5
14 | CC(C)n1cc(-c2cc3nc(C(C(=O)NCC(=O)NC4CC4)S(=O)(=O)C(C)C)sc3cc2F)ccc1=O (centres unmarked) [Example 268, N-[(cyclopropyl-carbamoyl)methyl]-2-{6-fluoro-5-[6-oxo-1-(propan-2-yl)-1,6-dihydropyridin-3-yl]-1,3-benzothiazol-2-yl}-2-(propane-2-sulfonyl)acetamide] | 11
15 | COC(=O)Nc1ccc(-c2cc3nc(C(C(=O)NCC(=O)NC4CC4)S(=O)(=O)C(C)C)sc3cc2F)cc1 (centres unmarked) [Example 269, methyl N-{4-[2-({[(cyclopropyl-carbamoyl)methyl]carbamoyl} (propane-2-sulfonyl)methyl)-6-fluoro-1,3-benzothiazol-5-yl]phenyl}carbamate] | 6
16 | CC(C)S(=O)(=O)C(C(=O)NCC(=O)NC1CC1)c1nc2cc(-c3ccc4[nH]c(=O)ccc4c3)c(F)cc2s1 (centres unmarked) [Example 270, N-[(cyclopropyl-carbamoyl)methyl]-2-[6-fluoro-5-(2-oxo-1,2-dihydroquinolin-6-yl)-1,3-benzothiazol-2-yl]-2-(propane-2-sulfonyl)acetamide] | 9
17 | Cc1cc(-c2cc3nc(C(C(=O)NCC(=O)NC4CC4)S(=O)(=O)C(C)C)sc3cc2F)cnn1 (centres unmarked) [Example 271, N-[(cyclopropyl-carbamoyl)methyl]-2-[6-fluoro-5-(6-methylpyridazin-4-yl)-1,3-benzothiazol-2-yl]-2-(propane-2-sulfonyl)acetamide] | 45
18 | CC(C)S(=O)(=O)C(C(=O)NCC(=O)NC1CC1)c1nc2cc(-c3cccnc3F)c(F)cc2s1 (centres unmarked) [Example 272, N-[(cyclopropyl-carbamoyl)methyl]-2-[6-fluoro-5-(2-fluoropyridin-3-yl)-1,3-benzothiazol-2-yl]-2-(propane-2-sulfonyl)acetamide] | 29
19 | CC(C)S(=O)(=O)C(C(=O)NCC(=O)NC1CC1)c1nc2cc(-c3ccc4cnn(C)c4c3)c(F)cc2s1 (centres unmarked) [Example 273, N-[(cyclopropyl-carbamoyl)methyl]-2-[6-fluoro-5-(1-methyl-1H-indazol-6-yl)-1,3-benzothiazol-2-yl]-2-(propane-2-sulfonyl)acetamide] | 9
20 | CC(C)S(=O)(=O)C(C(=O)NCC(=O)NC1CC1)c1nc2cc(-c3cccc4c3cnn4C)c(F)cc2s1 (centres unmarked) [Example 274, N-[(cyclopropyl-carbamoyl)methyl]-2-[6-fluoro-5-(1-methyl-1H-indazol-4-yl)-1,3-benzothiazol-2-yl]-2-(propane-2-sulfonyl)acetamide] | 3
21 | CC(C)S(=O)(=O)C(C(=O)NCC(=O)NC1CC1)c1nc2cc(-c3ccc(C#N)cc3)c(F)cc2s1 (centres unmarked) [Example 275, 2-[5-(4-cyanophenyl)-6-fluoro-1,3-benzothiazol-2-yl]-N-[(cyclopropyl-carbamoyl)methyl]-2-(propane-2-sulfonyl)acetamide] | 40
22 | CC(C)S(=O)(=O)C(C(=O)NCC(=O)NC1CC1)c1nc2cc(-c3cn(C)c(=O)c4ccccc34)c(F)cc2s1 (centres unmarked) [Example 276, N-[(cyclopropyl-carbamoyl)methyl]-2-[6-fluoro-5-(2-methyl-1-oxo-1,2-dihydro-isoquinolin-4-yl)-1,3-benzothiazol-2-yl]-2-(propane-2-sulfonyl) acetamide] | 8
23 | CC(C)S(=O)(=O)C(C(=O)NCC(=O)NC1CC1)c1nc2cc(-c3ccc(C(=O)N4CCC4)cc3)c(F)cc2s1 (centres unmarked) [Example 277, 2-{5-[4-(azetidine-1-carbonyl)phenyl]-6-fluoro-1,3-benzothiazol-2-yl}-N-[(cyclopropyl-carbamoyl)methyl]-2-(propane-2-sulfonyl)acetamide] | 13
24 | COC(=O)Nc1cccc(-c2ccc3nc(C(C(=O)NCC(=O)NC4CC4)S(=O)(=O)Cc4cccc(C#N)c4)sc3c2)c1 (centres unmarked) [Example 278, methyl N-(3-{2-[(3-cyanophenyl)methanesulfonyl ({[(cyclopropyl-carbamoyl)methyl]carbamoyl})methyl]-1,3-benzothiazol-6-yl}phenyl)carbamate] | 9
25 | CC(=O)Nc1cccc(-c2ccc3nc(C(C(=O)NCC(=O)NC4CC4)S(=O)(=O)Cc4cccc(C#N)c4)sc3c2)c1 (centres unmarked) [Example 279] | 89
26 | COC(=O)Nc1cccc(-c2cc(F)c3nc(C(C(=O)NCC(=O)NC4CC4)S(=O)(=O)C(C)C)sc3c2)c1 (centres unmarked) [Example 280, methyl N-{3-[2-({[(cyclopropyl-carbamoyl)methyl]carbamoyl} (propane-2-sulfonyl)methyl)-4-fluoro-1,3-benzothiazol-6-yl]phenyl}carbamate] | 6
27 | CC(C)S(=O)(=O)C(C(=O)NCC(=O)NC1CC1)c1nc2c(F)cc(-c3ccc4cnn(C)c4c3)cc2s1 (centres unmarked) [Example 281, N-[(cyclopropyl-carbamoyl)methyl]-2-[4-fluoro-6-(1-methyl-1H-indazol-6-yl)-1,3-benzothiazol-2-yl]-2-(propane-2-sulfonyl)acetamide] | 9
28 | CC(C)S(=O)(=O)C(C(=O)NCC(=O)NC1CC1)c1nc2c(F)cc(-c3cnc(-c4ccccc4)nc3)cc2s1 (centres unmarked) [Example 282, N-[(cyclopropyl-carbamoyl)methyl]-2-[4-fluoro-6-(2-phenylpyrimidin-5-yl)-1,3-benzothiazol-2-yl]-2-(propane-2-sulfonyl)acetamide] | 22
29 | CC(C)S(=O)(=O)C(C(=O)NCC(=O)NC1CC1)c1nc2c(F)cc(-c3ccc(N4CCCC4=O)cc3)cc2s1 (centres unmarked) [Example 283, N-[(cyclopropyl-carbamoyl)methyl]-2-{4-fluoro-6-[4-(2-oxopyrrolidin-1-yl)phenyl]-1,3-benzothiazol-2-yl}-2-(propane-2-sulfonyl)acetamide] | 10
